Source: patent EP4755396A1, “TREATMENT OF P53 GENE MUTATION OR DEFECT NEGATIVE CANCER AND TUMOR PATIENTS” (Ascentawits Pharmaceuticals, Ltd., priority 2023, dated 2025)
Like-named read-outs stand apart in the source and are kept apart here. Peptide text beside a SMILES is read from it. * marks the point of attachment. Cbz = O=C(OCc1ccccc1)*

Columns and labels:
H460 P53 KO #1 = experiment: In vitro cell proliferation inhibition under normoxia, p53 knockout cells; assay type: cell-based, human
Description: The p53 CRISPR/Cas9 KO plasmid (human) and p53 HDR plasmid (human) were purchased from Santa Cruz Company to construct H460 P53 KO cell lines, namely p53 knockout (KnockOut) H460 cell lines. Three groups of H460 P53 KO cell lines were constructed with numbers of H460 P53 KO # 1, H460 P53 KO # 7, and H460 P53 KO # 12.
After co-incubation for 15 minutes, they were added dropwise to the culture medium and mixed well.
After 48 h, 2 µg/mL puromycin was added for screening.
When the cell colonies grew to a sufficient size, single colonies were picked and cultured.
When the cell number reached a sufficient quantity, samples were collected for WB identification of the colonies.
H460 P53 KO cell lines, i.e. H460 P53 KO # 1, H460 P53 KO # 7, H460 P53 KO # 12 cell lines were used in experiments, respectively.
(§1) • 1) NCI-H460, NCI-H460 P53KO # 1 cell suspensions were added to a 96-well plate at 100 µL per well, with a cell density of 2000 /well. • 2) The cells were cultured overnight in an incubator at 37°C, 5% CO2. • 3) Compound Treatment
(§2) Monotherapy: After 24 hours of cell plating, 99.5 µL of growth medium was supplied to each well. Then each well was added with 0.5µL of test compounds at different concentrations, shaken gently to ensure even mixing, and then placed at 37°C, 5% CO2 in an incubator.
(§3) Combination therapy: After 24 hours of cell plating, 99 µL of medium was supplied to each well. Each well was added with 0.5µL of combined action compound, shaken gently to ensure even mixing, and then placed in an incubator for 2 hours. Then each well was added with 0.5µL of test compounds at different concentrations, shaken gently to ensure even mixing, and then placed at 37°C, 5% CO2 in an incubator.
(§4) 4) The cell plate was placed in the incubator for 72 hours.
(§5) 5) The cell plate to be tested was placed at room temperature to equilibrium for 30 minutes, and 100µL of medium was discarded per well.
(§6) 6) 25µL of CTG reagent was added to each well, placed at a fast shaker to shake for 2 minutes, and placed at room temperature away from light for 30 minutes.
(§7) 7) The chemiluminescence signal value was read using a multifunctional microplate reader with a reading time of 1000 ms.
(§8) 8) The ICso (half maximal inhibitory concentration) values were calculated using GraphPad Prism 5 software.

H460 cells = experiment: In vitro cell proliferation inhibition under normoxia (96-well, CTG, 72 hours); assay type: cell-based, human; details: for inhibition at 0.025 µM / inhibition at 0.05 µM: NCI-H460, H460 cells; for inhibition at 0.025 µM: RITA 0.025 µM; for inhibition at 0.05 µM: RITA 0.05 µM
Description: Overview of the experimental process • 1) H460 cell suspension was added to a 96-well plate at 100 µL per well, with a cell density of 2000 /well. • 2) The cells were cultured overnight in an incubator at 37°C, 5% CO2. • 3) Compound Treatment
Monotherapy: After 24 hours of cell plating, each well was supplied with 99.5 µL of growth medium then added with 0.5µL of test compounds at different concentrations, shaken gently to ensure even mixing, and then placed at 37°C, 5% CO2 in an incubator.
Combination therapy: After 24 hours of cell plating, each well was supplied with 99 µL of growth medium then added with 0.5µL of the combined action compound Nutlin-3, shaken gently to ensure even mixing, and then placed in an incubator for 2 hours. Then each well was added with 0.5µL of test compounds at different concentrations, shaken gently to ensure even mixing, and then placed at 37°C, 5% CO2 in an incubator.
as §4, §5, §6, §7
8) IC50 was calculated with Graph Pad Prism 5 software.
(§9) • 1) H460 and HPAF-II cell suspensions were added to a 96-well plate at 100 µL per well, with a cell density of 2000 /well and 20000/well, respectively. • 2) The cells were cultured overnight in an incubator at 37°C, 5% CO2. • 3) Compound Treatment
(§10) Combination therapy: After 24 hours of cell plating, 99 µL of growth medium was supplied to each well. Each well was added with 0.5 µL of Nutlin-3 or RITA, shaken gently to ensure even mixing, and then placed in an incubator for 2 hours. Then each well was added with 0.5µL of test compounds at different concentrations, shaken gently to ensure even mixing, and then placed at 37°C, 5% CO2 in an incubator.
as §2
(§11) 7) The chemiluminescence signal value was read using a multifunctional microplate reader with a reading time of 1000 ms. The corresponding inhibition rate data were calculated.
as §1, §3, §8

[1] = system: RAD51 protein in H460 cells; experiment: WB detection of RAD51 protein amount, degradation and half-life; assay type: cell-based; details: 0.1-1 nM AST-3424, 5 µM Nutlin-3, 5 µM MG-132, 24 hours (Figures 14-17)
Description: In the first, the second and the third experiments of the effect of AST-3424 in combination with Nutlin-3 on Ser15-p53, Ser20-p53, Total p53, MDM2 and p21 proteins in H460 cells in example 5, the applicant also performed WB detection of RAD51 protein, with the results shown in Figures 14, 15 and 16.
• 1) H460 cell suspension was added to a 24-well plate, with a cell density of 100000 /well and 995 µL of medium per well. • 2) The cells were cultured overnight in an incubator at 37°C, 5% CO2. • 3) Compound Treatment
Monotherapy: After 24 hours of cell plating, each well was supplied with 5µL of test compounds at different concentrations: 1% DMSO, 0.1nM AST-3424 and 5 µM Nutlin-3, shaken gently to ensure even mixing, and then placed at 37°C, 5% CO2 in an incubator. After continuing culture for 24 hours, the cells were collected.
Combination therapy: After 24 hours of cell plating, • Adding 0.1 nM AST-3424 for pre-treatment for 2 hours, and then adding 5 µM Nutlin-3 for co-treatment for 22 hours; • Adding 1% DMSO and 5 µM MG-132 for co-treatment for 24 hours; • Adding 0.1 nM AST-3424 and 5 µM MG-132 for co-treatment for 24 hours; • Adding 5 µM Nutlin-3 and 5 µM MG-132 for co-treatment for 24 hours; • Adding 0.1 nM AST-3424 for pre-treatment for 2 hour, and then adding 5 µM Nutlin-3 for treatment for 16 hours, and then adding 5µM MG-132 for co-treatment for 6 hours. […]

HPAF-II cells = experiment: In vitro cell proliferation inhibition (96-well, CTG, 72 hours); assay type: cell-based; details: Homo sapiens, HPAF-II cells, 72 hours; for inhibition at 2.5 µM: RITA 2.5 µM; for inhibition at 5 µM: RITA 5 µM
Description: as §9, §10, §2, §4, §5, §6, §11

SMILES: CN(C)C(=O)c1cccc(Oc2cc3c(cc2[N+](=O)[O-])OCCC3OP(=O)(N2CC2)N2CC2)c1 (centres unmarked) [Compound C]
- IC50 (H460 P53 KO #1; Homo sapiens, NCI-H460, 72 h, NCI-H460 P53KO # 1, normoxia, 72 hours, alone or with 3 µM AST-3021 as labelled (Example 13)): 0.0361 µM
- Ratio, combination therapy/ monotherapy (H460 P53 KO #1; IC50 ratio, NCI-H460 P53KO # 1, + 3 µM AST-3021 versus alone (Example 13)): 43.24
- Ratio, Compound C/AST-3424 (H460 P53 KO #1; IC50 ratio, NCI-H460 P53KO # 1, monotherapy): 6.62
- Ratio, knockout / wild (H460 P53 KO #1; IC50 ratio, NCI-H460 P53KO # 1 versus NCI-H460, monotherapy (Example 13)): 17.60
- IC50 (H460 cells; Homo sapiens, NCI-H460, 72 h, NCI-H460, normoxia, 72 hours, alone or with 3 µM AST-3021 as labelled (Example 13)): 0.00205 µM
- Ratio, combination therapy/ monotherapy (H460 cells; IC50 ratio, NCI-H460, + 3 µM AST-3021 versus alone (Example 13)): 305.37
- Ratio, Compound C/AST-3424 (H460 cells; IC50 ratio, NCI-H460, monotherapy): 4.77

SMILES: CC(C)C[C@@H](C=O)NC(=O)[C@H](CC(C)C)NC(=O)[C@H](CC(C)C)NC(=O)OCc1ccccc1 [MG-132] (Cbz-Leu-Leu-Leu-aldehyde)
- RAD51 protein amount (WB) [1]: reversed the downregulation of RAD51 protein

SMILES: OCc1ccc(-c2ccc(-c3ccc(CO)s3)o2)s1 [RITA]
- inhibition at 2.5 µM (HPAF-II cells; AST 60 nM, AST + RITA 60+2.5, read-out: Inhibition rate, experimental group 1): 2.86%
- inhibition at 5 µM (HPAF-II cells; AST 60 nM, AST + RITA 60+5, read-out: Inhibition rate, experimental group 2): 5.56%
- inhibition at 2.5 µM (HPAF-II cells; AST 200 nM, AST + RITA 200+2.5, read-out: Inhibition rate, experimental group 3): 2.86%
- inhibition at 5 µM (HPAF-II cells; AST 200 nM, AST + RITA 200+5, read-out: Inhibition rate, experimental group 4): 5.56%
- inhibition at 2.5 µM (HPAF-II cells; AST 1667 nM, AST + RITA 1667+2.5, read-out: Inhibition rate, experimental group 5): 2.86%
- inhibition at 5 µM (HPAF-II cells; AST 1667 nM, AST + RITA 1667+5, read-out: Inhibition rate, experimental group 6): 5.56%
- inhibition at 2.5 µM (HPAF-II cells; AST 5000 nM, AST + RITA 5000+2.5, read-out: Inhibition rate, experimental group 7): 2.86%
- inhibition at 5 µM (HPAF-II cells; AST 5000 nM, AST + RITA 5000+5, read-out: Inhibition rate, experimental group 8): 5.56%
- inhibition at 0.025 µM (H460 cells; Homo sapiens, 72 hours, AST 0.5 nM, AST + RITA 0.5+0.025, read-out: Inhibition rate result, experimental group 1): 22.3%
- inhibition at 0.05 µM (H460 cells; Homo sapiens, 72 hours, AST 0.5 nM, AST + RITA 0.5+0.05, read-out: Inhibition rate result, experimental group 2): 22.4%
- inhibition at 0.025 µM (H460 cells; Homo sapiens, 72 hours, AST 1.5 nM, AST + RITA 1.5+0.025, read-out: Inhibition rate result, experimental group 3): 22.3%
- inhibition at 0.05 µM (H460 cells; Homo sapiens, 72 hours, AST 1.5 nM, AST + RITA 1.5+0.05, read-out: Inhibition rate result, experimental group 4): 22.4%
